Patent US20240426807A1, “SCREENING SYSTEM” (Givaudan SA, priority 2021, published 2024)
“Also recorded” adds a separate entry of the source.

Experiments:
Assay type in all cases: cell-based
[1] = molecular target: T1, pool of cells with OR5A1, OR5A2, OR5AN1, OR6Y1, OR10G4, OR10G7 or OR10G9 (Homo sapiens, UniProt Q8NGI8); experiment: Selection of cognate-receptor cells from a pool of OR-expressing cells with the target ligand and puromycin; details: 10 μM musk ketone, puromycin 1 μg/ml, pool of 7 OR transfections
T1 construct: expressed in transfected cells; host or cells: HEK293T stably expressing RTP1S and RTP2; 7 separate transfections pooled
T1 sequence (Q8NGI8 1-311): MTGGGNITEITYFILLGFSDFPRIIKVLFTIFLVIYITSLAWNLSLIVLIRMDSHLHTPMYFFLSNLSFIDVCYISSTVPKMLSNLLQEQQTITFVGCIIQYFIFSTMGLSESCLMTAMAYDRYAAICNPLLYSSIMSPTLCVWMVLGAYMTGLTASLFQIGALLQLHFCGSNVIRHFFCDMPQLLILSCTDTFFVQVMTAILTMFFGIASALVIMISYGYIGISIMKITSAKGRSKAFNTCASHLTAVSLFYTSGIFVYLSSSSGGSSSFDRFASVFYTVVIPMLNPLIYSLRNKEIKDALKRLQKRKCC
Protocol: For many ligands the cognate OR receptors are not known (“orphan receptors”), or it is unknown among a pool of receptors, which one has the best affinity for a ligand of interest, e.g. a perfumery note of particular interest. Thus, the ligand-induced selection pressure can be used to enrich a specific OR-expressing cell from a pool of OR-expressing cells in the presence of a ligand of interest. HEK293T cells stably expressing RTP1S and RTP2 were seeded into 7 wells of 6-well plates at 330,000 cells/well.
The next day, the cells of each well were transfected with 2 μg of a PvuI-linearized pGL4.29-CRE-Puro-Hygro-OR construct harboring one of the receptors OR5A1 (NCBI Genbank Gene ID: 219982), OR5A2 (NCBI Genbank Gene ID: 219981), OR5AN1 NCBI Genbank Gene ID: 390195, SEQ ID NO: 70), OR6Y1 (NCBI Genbank Gene ID: 391112), OR10G4 (NCBI Genbank Gene ID: 390264, SEQ ID NO: 72), OR10G7 (NCBI Genbank Gene ID: 390265, SEQ ID NO: 71), or OR10G9 (NCBI Genbank Gene ID: 219870). 24 h after transfection, the cells of all 7 transfections were harvested and pooled. 350 cells of this pool of cells with different OR genes inserted were then seeded into each well of seven 96-well plates.
3 days later, cells were stimulated with ligands for either OR5AN1 (10 μM musk ketone), OR10G7 (1 μM eugenol), or OR10G4 (100 μM vanitrope). One plate was treated with DMSO only. 6h after the addition of the OR ligands, puromycin was added to each plate at a final concentration of 1 μg/ml. On every day during the following week, the medium on all plates was replaced with fresh medium containing the corresponding ligand and puromycin. The plates were then searched for wells containing only a single colony of puromycin-resistant cells. The cells of those colonies were transferred to larger plates and grown until they had multiplied to about 8 Mio cells. The genomic DNA of 2 Mio cells of each clone were isolated using the Puregene kit according to the manufacturer's protocol. […]

OR5AN1 = molecular target: T2, OR5AN1 (Homo sapiens, UniProt Q8NGI8); experiment: Ligand-induced blasticidin resistance, OR5AN1 cells (pGL4.29-CRE-BLAST-OR)
T2 construct: expressed in transfected cells
T2 sequence (Q8NGI8 1-311): T1 sequence (Q8NGI8 1-311)
Description: To generate a vector allowing positive selection of cell clones with a functional expression of a specific OR gene, a blasticidin resistance gene was placed downstream of SEQ ID NO: 4. The pGL4.29-CRE-Puro-OR vector generated as described in Example 1 was digested with BgIII and FseI to remove the comprised basal promoter and the complete puromycin resistance gene. The removed basal promoter sequence was amplified with the primers […] (SEQ ID NO: 28), […] (SEQ ID NO: 63), and the blasticidin S deaminase (bsd, SEQ ID NO: 64) encoding sequence was amplified by PCR using the primers […] (SEQ ID NO: 66) […] (SEQ ID NO: 67). The two overlapping PCR products were joined by fusion PCR using primers […] (SEQ ID NO: 28) and […] (SEQ ID NO: 68). The resulting DNA fragment was digested with BgIII/FseI and ligated into the digested vector to generate pGL4.29-CRE-Blast-OR.
This vector was used to generate stable cell lines as described in Example 1.
Stable clones containing a stable insertion of the pGL4.29-CRE-BLAST-OR construct with the receptor OR5AN1 (NCBI Genbank Gene ID: 390195) were then plated at a density of 3000 cells/per well in 100 μl Dubelcco's Modified Eagle medium (DMEM) in polyethyleneimide-coated, white 96 well microtiter plates with a transparent bottom. After cells were allowed to adhere for 24 h, 50 μl of medium containing different odorants (musk ketone or ethyl vanillin at 40 μM) was added to each well resulting in an odorant concentration of 13.3 μM. 6 h after odorant addition, 50 μl of medium containing blasticidin was added to reach a final concentration of 0.5-256 μg/ml in 10 two-fold dilution steps (day 1 of selection). This step further diluted the odorant to 10 μM. On day 4 of the selection (72 h after blasticidin addition), medium from each well was removed completely, 100 μl PrestoBlue® cell viability reagent (ThermoFisher Scientific, Catalog No: 14200-083) diluted in phosphate buffered saline containing 1 mg/ml glucose was added to each well and cells were incubated at 37° C. until a color change was visible in the wells containing no blasticidin. The fluorescence was determined at 560 excitation and 590 nm emission to assess relative cell metabolic activity, which is the net result of cell growth and cell killing in presence of the different blasticidin concentrations. The result was expressed as % viability relative to controls with no cells (0%) and cells treated with olfactory ligand only (100%).

OR5A2 (clone 3) = molecular target: T3, OR5A2 (clone 3) (Homo sapiens, UniProt Q8NGI9); experiment: Ligand-induced puromycin resistance of isolated clone 3 containing OR5A2; details: clone 3 (OR5A2), 11 concentrations of puromycin, co-treated with olfactory ligands
T3 construct: expressed in transfected cells; clone 3 selected with musk ambrette and puromycin
T3 sequence (Q8NGI9 with tags, fused parts or gaps): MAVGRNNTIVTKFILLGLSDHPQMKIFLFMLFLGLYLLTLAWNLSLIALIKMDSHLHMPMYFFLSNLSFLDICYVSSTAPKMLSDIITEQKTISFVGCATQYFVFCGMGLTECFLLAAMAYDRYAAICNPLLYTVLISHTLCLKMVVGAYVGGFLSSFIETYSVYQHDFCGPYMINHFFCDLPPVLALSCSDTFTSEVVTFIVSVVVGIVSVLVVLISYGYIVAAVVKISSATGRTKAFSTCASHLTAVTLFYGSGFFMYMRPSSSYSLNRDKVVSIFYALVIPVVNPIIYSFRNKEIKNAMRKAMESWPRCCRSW

| Structure (SMILES) | clones selected with the ligand that contained OR5AN1 [1] | blasticidin resistance in presence of odorant versus solvent control (OR5AN1; HEK293T OR5AN1, odorant 10 μM, blasticidin 0.5-256 μg/ml, PrestoBlue viability day 4) | difference in viability with versus without ligand (OR5AN1; blasticidin at 32 μM (so in the source)) | surviving cells (viability) in presence of ligand (OR5AN1; blasticidin at 32 μM (so in the source), odorant 10 μM, relative to no cells (0%) and ligand only (100%)) | increase of blasticidin concentration reducing viability by 50% (EC50) in presence of ligand (OR5AN1; versus absence of ligand) | puromycin resistance of clone 3 in presence of odorant (OR5A2 (clone 3)) |
| --- | --- | --- | --- | --- | --- | --- |
| CC(=O)c1c(C)c([N+](=O)[O-])c(C(C)(C)C)c([N+](=O)[O-])c1C [musk ketone] | 9 clones | increased resistance to blasticidin; also recorded: Enhanced blasticidin resistance | ~10 fold | 75% | > 50 fold |  |
| C=CCc1ccc(O)c(OC)c1 [eugenol] |  |  |  |  |  | no increased resistance |
